Read-outs that look alike come from different tables or passages of the source.
Legend:
protein kinase C (PKC) = assay: Protein Kinase C Inhibition; format: biochemical, rat
Procedure: The protein kinase C (PKC) assay is designed to duplicate the in vivo conditions required for protein kinase C function. Therefore, pH, salt and cofactor concentrations are similar to physiologic levels. Histone H1 (lysine rich) is used in the assay as the phosphorylation acceptor protein because it is readily available and serves as a good substrate for protein kinase C. The enzyme is prepared from rat brain and is purified to apparent homogeneity as determined by a single band on silver stained SDS-polyacrylamide. Studies on the mechanism of regulation of protein kinase C by phospholipids, DAG and Ca^+2 have been hampered by the physical properties of the lipid cofactors. In the screening assay, phosphatidylserine (PS) and DAG are co-sonicated to form unilamellar and multilamellar vesicles. The concentration of lipids in the assay are suboptimal to maximize the detection potential of the assay for inhibitors. […] The assay is started with the addition of enzyme and stopped after 10 min by the addition of 25% trichloroacetic acid (TCA) and 1.0 mg/ml bovine serum albumin (BSA). The radioactive histone product is retained and washed on glass fiber filters that allow the unreacted ^32 P-ATP to pass through. The amount of phosphorylation is determined by the radioactivity measured in a scintillation counter. Controls are included in every assay to measure background activity in the absence of enzyme, activity in the absence of lipids and the maximum enzyme activity with saturating levels of the activator lipids.
Both the free base and the HCl salt were tested.

[1] = biological target: T1, protein kinase (PKA), catalytic subunit (Homo sapiens, UniProt P17612); assay: cAMP-Dependent Protein Kinase (PKA) Assay; format: biochemical; conditions: free base
T1 construct: purchased Sigma Chemical Company, St. Louis, Mo
Procedure: Compound found to be inhibitors of protein kinase C are tested for inhibitory activity against protein kinase (PKA). This enzyme, like protein kinase C, plays an important role in cell-cell communication and is activated by a second messenger, cAMP. Secondary screening against PKA is useful for ascertaining the selectivity of the compounds of the invention. The catalytic subunit of PKA (Sigma Chemical Company, St. Louis, Mo.) is mixed with buffer before addition of the inhibitor in dimethylsulfoxide (DMSO). The assay is started by the addition of 32P-ATP and the reaction is allowed to proceed for 10 min before stopping with 25% trichloroacetic acid (TCA) and 1.0 mg/ml bovine serum albumin (BSA). The phosphorylated protein is isolated by filtration and the radioactivity is counted in a beta scintillation counter.

[2] = tested on: MCF-7 human breast tumor cell line; assay: Human Tumor Cell Growth Inhibition, MCF-7; format: cell-based; conditions: for IC50: Homo sapiens, MCF7, 3H-thymidine incorporation, value outside parentheses (not salt); for inhibit growth of MCF-7 cells: result in words
Procedure: MCF-7 a human breast tumor cell line and MCF-7/ADR an adriamycin resistant line of MCF-7 cells were obtained from the National Cancer Institute, Frederick, Md. […] Human tumor cells are trypsinized (0.05% trypsin, GIBCO), counted with a hemacytometer and seeded at a concentration of 10,000 cells/well in a 96 well microtiter plate. After allowing cells to attach to the surface overnight, the culture medium is aspirated and replaced with 100 μl of fresh medium. Test agents are diluted to determine dose response at 2× final concentration and added in quadruplicate at 100 μl/well to bring the total volume of each well to 200 μl. The microtiter plate is then incubated at 37° C. 5% CO2 overnight (18-24 hrs) before ^3 H-thymidine is added at a concentration of 0.5 μCi/well in 50 μl culture medium. The plate is incubated again for 4 hrs under the same conditions as above. Supernatant is then aspirated and 50 μl trypsin (0.05%, GIBCO) is added to each well. Cells are checked microscopically to determine detachment from surfaces, and plates are then harvested with a cell harvester (PHD, Cambridge Technology, Inc.) Filter papers corresponding to wells are placed in scintillation vials and counted to determine the amount of ^3 H-thymidine incorporated by the cells. Test agent response is compared to a positive control of cell wells with culture media only to determine the IC50. IC50 is the concentration of test compound required to inhibit fifty per cent of the incorporation of ^3 H-thymidine into proliferating cells not exposed to test agent. Uptake of ^3 H-thymidine is a standard test for measuring the metabolism of cells. Cells which are actively proliferating take up ^3 H-thymidine, whereas cells that are not proliferating take up ^3 H-thymidine at much slower rates or not at all. Test agents that inhibit the uptake of ^3 H-thymidine thus slow the growth of cells.

[3] = tested on: NHEK cells (proliferating keratinocytes); assay: Human Keratinocyte Inhibition; format: cell-based; conditions: 3H-thymidine incorporation
Procedure: Proliferating keratinocytes (NHEK cells purchased from Clonetics, Inc., San Diego, Calif.) in second passage were grown in Keratinocyte Growth Medium (KGM) (Clonetics, Inc.) Cells are trypsinized (0.025% trypsin, Clonetics), counted with a hemacytometer (Scientific Products), and seeded at a concentration of 2,500 cells/well in a 96 well microtiter plate. After allowing cells to attach to the surface overnight, the culture medium is aspirated and replaced with 100 μl of fresh KGM. […] IC50 is the concentration of test compound required to inhibit fifty percent of the incorporation of ^3 H-thymidine into proliferating cells not exposed to test agent.

[4] = tested on: PMA-stimulated neutrophils; assay: Neutrophil Superoxide Anion (O2^-) Release Assay; format: cell-based, human; conditions: for IC50: Homo sapiens, Neutrophil, PMA-stimulated; for inhibit O2^- production by PMA-stimulated neutrophils: result in words
Procedure: Neutrophils are isolated form whole blood collected from human volunteers. All reagent materials are obtained from Sigma Chemical Company with the exception of isotonic saline (Travenol Laboratories, Inc., Deerfield, Ill.) and lymphocyte separation medium (Organon Teknika, Durham, N.C.).
Whole blood is drawn and mixed with sodium heparin (final conc. 10 units/ml) to prevent clotting. An equal volume of dextran (3.0%) in isotonic saline is added, mixed, and allowed to settle for 30 min to bind red blood cells (RBC). Supernatant is removed, underlayered with lymphocyte separation medium and centrifuged for 40 min at 400 xg in a centrifuge (Beckman GPR, Norcross, Ga). The pellet is alternately resuspended in 0.2% and 1.6% NaCl to lyse RBCs before washing with Hank's Balanced Salt Solution (HBSS). The washed pellet is resuspended in 10 mL HBSS and placed on ice before counting on a hemacytometer.
The neutrophil cell concentration is adjusted to 2×10^6 cells/ml with HBSS before adding 0.8 mL cells to 12×75 mm polypropylene test tubes (Fisher Scientific). Test agents are diluted to determine dose response and added at 10× final concentration at a volume of 0.1 mL/tube in duplicate. Then 10× concentrations of cytochrome C (15 mg/ml) with catalase (3000 units/ml) either alone or containing 25 ng/ml phorbol 12-myristate 13-acetate (PMA) are added at a volume of 0.1 mL/tube and incubated at 37° C. for 30 min before stopping the reaction by placing tubes on ice. Tubes are then centrifuged at 900 xg for 10 min, 0.5 mL supernatant is removed and added to 0.5 mL H2 O in a microcuvette. Optical density (OD) of cytochrome c is read in a spectrophotometer (Shimadzu) at 550 nm. The ΔOD of cytochrome c is obtained between PMA-stimulated and non-stimulated tubes, and the dose responses of the test agents are compared to the positive controls (which contain HBSS in place of test agents). PMA stimulates O2^- production which reduces cytochrome c. Reducing cytochrome c increases its absorbance, and the change in OD of cytochrome c is proportional to the amount of O2^- produced by PMA stimulation. Inhibition of the O2^- burst by test compounds of the invention is seen as a reduction in the change in optical density. Inhibition is expressed as IC50 μM and is the amount of test compound that will inhibit fifty percent of the PMA-stimulated respiratory outburst, i.e. O2^- production.

[5] = tested on: MCF-7 human breast tumor cell line; assay: Human Tumor Cell Growth Inhibition, MCF-7; format: cell-based; conditions: MCF7, 3H-thymidine incorporation, value in parentheses: salt
[6] = value in parentheses: salt, read-out: NHEK IC50 (salt)
[7] = value outside parentheses (not salt), read-out: NHEK IC50
[8] = value in parentheses: salt, read-out: Neutrophil Superoxide Release IC50 (salt)
[9] = value outside parentheses (not salt), read-out: Neutrophil Superoxide Release IC50

SMILES	IC50 (protein kinase C (PKC); HCl salt)	IC50 (protein kinase C (PKC); free base)	IC50 [1]	IC50 [2]	inhibit growth of MCF-7 cells [2]	IC50 [3, 6]	IC50 [3, 7]	IC50 [4, 8]	IC50 [4, 9]	inhibit O2^- production by PMA-stimulated neutrophils ([4]; HCl salt)	inhibit O2^- production by PMA-stimulated neutrophils ([4]; compound itself)	IC50 [5]
CCCCCCCCCCCCCCCC(=O)N(C)CCN(C)C [Compound 3]	66 µM	40 µM	–	–	–	–	–	–	–	–	–	–
CCCCCCCCCCCCCCCC(=O)N(C)CCCN(C)C [Compound 4, N-Hexadecanoyl-N,N',N'-trimethyl-1,3-propanediamine]	57 µM	107 µM	90 µM	1.5 µM	effectively inhibit growth of MCF-7 cells at micromolar concentrations	2.4 µM	0.8 µM	2.39 µM	45 µM	inhibit O2^- production by PMA-stimulated neutrophils at micromolar concentrations	inhibit O2^- production by PMA-stimulated neutrophils at micromolar concentrations	2.9 µM
CCCCCCCCCCCCCCCC(=O)NCCCN(C)C [Compound 6, N,N-Dimethyl-N'hexadecanoyl-1,3-propanediamine]	50 µM	50 µM	140 µM	4.5 µM	effectively inhibit growth of MCF-7 cells at micromolar concentrations	0.78 µM	–	2.8 µM	2.32 µM	inhibit O2^- production by PMA-stimulated neutrophils at micromolar concentrations	inhibit O2^- production by PMA-stimulated neutrophils at micromolar concentrations	3.5 µM
CCCCCCCCCCCCCCCC(=O)N(CC)CCCN(C)C [Compound 7, N,N-Dimethyl-N'-ethyl-N'-hexadecanoyl-1,3-propanediamine]	38 µM	50 µM	119 µM	–	–	–	–	–	–	–	–	–
CCCCCCCCCCCCCCCC(=O)N(CCC)CCCN(C)C [Compound 8, N,N-Dimethyl-N'-hexadecanoyl-N'-propyl-1,3-propanediamine]	48 µM	131 µM	> 218 µM	9.7 µM	–	–	1.03 µM	–	2.9 µM	–	–	–
CCCCCCCCCCCCCCCC(=O)N(CCCN(C)C)C(C)C [Compound 9, N,N-Dimethyl-N'-(2-propyl)-N'-hexadecanoyl-1,3-propanediamine]	130 µM	146 µM	172 µM	5.1 µM	–	–	0.14 µM	–	0.9 µM	–	–	–
CCCCCCCCCCCCCCCC(=O)NCCCN(CC)CC [Compound 10, N,N-Diethyl-N'-hexadecanoyl-1,3-propanediamine]	–	131 µM	> 218 µM	–	–	–	1.56 µM	–	–	–	–	–
CCCCCCCCCCCCCCCC(=O)NCCC[N+](C)(C)C [Compound 15, N-Hexadecanoyl-3-trimethylammoniumpropylamine iodide]	–	24 µM	–	5 µM	–	–	3.3 µM	–	–	–	–	–
CCCCCCCCCCCCCCCCN(CCCN(C)C)C(C)=O [Compound 20, N-Acetyl-N-hexadecyl-N',N'-dimethyl-1,3-propanediamine]	44 µM	69 µM	67 µM	–	–	–	1.3 µM	–	1.1 µM	–	–	–
CCCCCCCCCCCCCCCC(=O)N(CCC[N+]1(C)CCOCC1)Cc1ccccc1 [Compound 22]	–	45 µM	< 44 µM	15.4 µM	–	–	1.6 µM	–	–	–	–	–
CCCCCCCCCCCCCCCC(=O)N(C)CCN(C)C [Compound 25, N,N,N'-Trimethyl-N'-hexadecanoyl-1,3-ethanediamine]	100 µM	92 µM	> 218 µM	–	–	–	–	–	–	–	–	–

Reference: patent publication US5270310A, “N-aminoalkyl amide inhibitors of protein kinase C” (Sphinx Pharmaceuticals Corporation, priority 1991, dated 1993)
